This is an account of results in paper PMC4700456, “Receptor for detection of a Type II sex pheromone in the winter moth Operophtera brumata” (Scientific Reports, 2016).

The target in this test is T1, ObruOR1 (co-expressed with Obru\Orco) (Operophtera brumata, UniProt A0A140YWR3).
T1 construct: full-length, ObruOR1 430 aa, Obru\Orco 472 aa; pCS2+ vector, cRNAs co-injected in Xenopus laevis oocytes; with Odorant receptor co-receptor
T1 sequence (A0A140YWR3 1-430): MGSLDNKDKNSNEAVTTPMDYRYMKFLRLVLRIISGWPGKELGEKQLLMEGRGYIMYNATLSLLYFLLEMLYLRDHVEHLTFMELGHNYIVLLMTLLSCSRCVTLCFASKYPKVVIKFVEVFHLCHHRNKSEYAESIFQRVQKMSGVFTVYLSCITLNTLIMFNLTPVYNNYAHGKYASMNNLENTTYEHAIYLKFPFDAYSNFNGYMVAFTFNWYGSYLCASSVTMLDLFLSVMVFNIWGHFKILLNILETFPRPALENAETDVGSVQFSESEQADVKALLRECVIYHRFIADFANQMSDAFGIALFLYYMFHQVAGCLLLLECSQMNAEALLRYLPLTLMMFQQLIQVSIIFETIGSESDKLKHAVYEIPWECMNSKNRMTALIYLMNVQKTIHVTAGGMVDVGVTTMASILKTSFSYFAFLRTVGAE
T1 sequence (A0A140YWR4 1-472 partner): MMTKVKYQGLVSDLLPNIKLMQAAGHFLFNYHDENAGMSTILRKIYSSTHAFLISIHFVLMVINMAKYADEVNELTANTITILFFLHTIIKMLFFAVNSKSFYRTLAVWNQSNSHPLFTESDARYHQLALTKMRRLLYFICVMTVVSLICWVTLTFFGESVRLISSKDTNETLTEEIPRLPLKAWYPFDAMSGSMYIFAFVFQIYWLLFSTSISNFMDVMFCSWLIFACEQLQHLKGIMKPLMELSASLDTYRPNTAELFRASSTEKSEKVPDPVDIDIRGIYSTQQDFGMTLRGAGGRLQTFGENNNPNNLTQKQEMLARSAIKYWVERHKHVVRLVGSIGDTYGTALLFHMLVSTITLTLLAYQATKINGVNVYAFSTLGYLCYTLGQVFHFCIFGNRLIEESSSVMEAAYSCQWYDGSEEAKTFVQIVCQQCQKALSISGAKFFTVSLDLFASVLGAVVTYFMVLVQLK
The experiment in a line: two-electrode voltage clamp, Xenopus oocytes. In kind it is cell-based. The following applies: agonist, holding potential -80 mV, Ringer's buffer, dose-response. On the technique in general: Two-electrode voltage clamp holds a large cell at a set potential and records current.

`C=C/C=C\C/C=C\C/C=C\CCCCCCCCC` [1,3Z,6Z,9Z-19:H, (3Z,6Z,9Z)-1,3,6,9-nonadecatetraene] showed a threshold dose of 10 nM.
